Experimental data reported in ChEMBL document CHEMBL1145265, “Chiral discrimination in binding of enantiomers of 2-(aminoalkoxy)-substituted 4-(2-thienyl)pyrimidines and 4,6-bis(2-thienyl)pyrimidines with duplex DNA” (Bioorg Med Chem Lett, 2005).

Test system: Calf thymus DNA
Assay: Ratio of binding constant of S-enantiomer and R-enantiomer towards sonicated calf thymus DNA
Assay type: nucleic-acid assay
Details: Bos taurus

SMILES | Ratio
Cc1cnc(OCC(N)C(C)C)nc1-c1cccs1 (configuration not stated) | 1.6
CC(N)COc1nc(-c2cccs2)cc(-c2cccs2)n1 (configuration not stated) | 1.2
Cc1c(-c2cccs2)nc(OCC2CCCN2)nc1-c1cccs1 (configuration not stated) | 1.8
CCC(N)COc1nc(-c2cccs2)c(C)c(-c2cccs2)n1 (configuration not stated) | 1.6
Cc1c(-c2cccs2)nc(OCC(C)N)nc1-c1cccs1 (configuration not stated) | 1.5
Cc1c(-c2cccs2)nc(OCC(N)C(C)C)nc1-c1cccs1 (configuration not stated) | 1.5
Cc1c(-c2cccs2)nc(OCCN)nc1-c1cccs1 | 2.2

Now from value to compound:

Ratio | SMILES
2.2 | CC(C)C(N)COc1nc(-c2cccs2)cc(-c2cccs2)n1 (configuration not stated)
1.4 | Cc1cnc(OCC2CCCN2)nc1-c1cccs1 (configuration not stated)
2.7 | NCCOc1nc(-c2cccs2)cc(-c2cccs2)n1
1.4 | CCC(N)COc1nc(-c2cccs2)cc(-c2cccs2)n1 (configuration not stated)
2.4 | c1csc(-c2cc(-c3cccs3)nc(OCC3CCCN3)n2)c1 (configuration not stated)
